Earlier results in patent US11466400B2, “Finish composition” (Hexcel Corporation, priority 2018, dated 2022).

In the case of O=C(O)CNCC(=O)O [Iminodiacetic acid], the pKa is listed as 1.873.
